In data set [1] the target is T1, c-Met (Homo sapiens, UniProt P08581). The data set is described as follows: Inhibition of c-Met kinase phosphorylation in MKN-45 cells (cell based ELISA). Further details: endogenous in cells; host or cells: MKN-45. The conditions noted are these: 1 h. As to the method: Inhibition of c-Met Kinase Phosphorylation in MKN-45 Cells:
MKN45 cells are a prototype of “c-Met addicted” cells having constitutively activated c-Met kinase similar to that observed in sub-sects of gastric or hepatocellular cancer patients with dysregulated c-Met kinase activity. Inhibition of Met phosphorylation was determined using a cell based ELISA assay according to the following schedule:
Day 1: MKN-45 cells were plated in 96-well plates in complete growth medium.
Day 2: Inhibitors at the desired concentration were added to the plates and incubated for 1 h and lysed subsequently.
Lysates were transferred to NUNC Maxisorp plates coated with anti-cMet receptor antibody. Phopho-tyrosine mAb and HRP-lined anti-mouse IgG were used as primary and secondary antibodies respectively. Optical density was measured on a microplate reader (BMG Labtech., Germany) at […]. Inhibition of c-Met phosphorylation in this cell line indicates a therapeutic potential for test compounds in patients diagnosed with cancers caused by aberrant c-Met kinase signalling.
In general terms: An ELISA detects its analyte on a solid surface through an enzyme-linked reagent.

The subject of another data set is MKN-45 cells. Briefly: Inhibition of MKN-45 proliferation (MTT). It is filed as cell-based, human. The method in brief:
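Viability measured by MTT dye reduction on day 5 after compound addition on day 2 to MKN-45 gastric adenocarcinoma cells (high Met expression) seeded on day 1 in complete medium.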

Another data set deals with Met kinase (Homo sapiens, UniProt P08581). Briefly: MET kinase assay (colorimetric determination of c-Met kinase activity, HTScan Met Kinase Assay Kit). The arrangement: purchased Cell Signalling Technology, Beverly, Mass. The class given is biochemical. The conditions noted are these: for IC50: c-Met kinase. The text has this:
1. MET Kinase Assay Protocol:
Colorimetric Determination of c-Met Kinase Activity
The receptor tyrosine kinase c-Met is a heterodimeric transmembrane glycoprotein involved in several cellular processes that aid in tumor progression. Phosphorylation of the tyrosine residues in the c-Met kinase domain is critical for its activity and the resulting down-stream effects. The colorimetric assay allows detection of the phosphorylated form of a biotinylated peptide upon activation of human recombinant Met kinase.
MET Kinase Assay Protocol:
c-Met Kinase activity shall be determined using an HTScan® Met Kinase Assay Kit (Cell Signalling Technology, Beverly, Mass.) with modifications. All incubations are carried out at room temperature. Briefly, 12.5 μl of a 4× reaction cocktail (DTT/Kinase buffer containing appropriate quantity of human Met kinase) is added to each well of a 96-well plate containing 12.5 μl pre-diluted compound of interest and incubated for 5 minutes. After the initial incubation, 25 μl/well of 2×ATP/biotinylated peptide is added and incubated for an additional 30 minutes. The reaction is terminated by the addition of 50 μl/well stop buffer (50 mM EDTA, pH 8.0). The reaction mixture (25 μl/well) is then transferred to a streptavidin coated plate (Perkin Elmer, Cat#4009-0010) containing 75 μl dH2O and incubated for 60 minutes. The plate is washed with 200 μl/well wash buffer (1×PBS, 0.05% Tween-20). After washing, 100 μl/well phospho-tyrosine mAb (1:1000 in wash buffer containing 1% BSA) is added and incubated for 60 minutes. After another round of washes, 100 μl/well europium labelled anti-mouse IgG (1:500 in wash buffer containing 1% BSA) is added and incubated for an additional 30 minutes. Following additional washes, 100 μl/well Delfia® enhancement solution (Perkin Elmer, Cat#1244-105) is added and incubated for 45 minutes. Florescence is measured on a microplate reader (BMG Labtech., Germany) at 340 nm (excitation) and 615 nm (emission) for calculating % inhibition. Data generated can be analyzed further using Graphpad Prism (Graphpad software, San Diego Calif.) for determination of IC50.

For data set [2], the target named is T1, c-Met. The data set is described as follows: Inhibition of c-Met kinase phosphorylation in NCI-H441 cells (cell based ELISA). The arrangement: endogenous in cells; host or cells: NCI-H441. The conditions noted are these: 1 h. Here is the method:
Inhibition of c-Met Kinase Phosphorylation in NCI—H441 Cells:
Inhibition of Met phosphorylation was determined using a cell based ELISA assay according to the following schedule:
Day 1: NCI—H441 cells were plated in 96-well plates in complete growth medium.
Day 2: Inhibitors at the desired concentration were added to the plates, incubated for 1 h and lysed subsequently. Lysates were transferred to NUNC Maxisorp plates coated with anti-cMet receptor antibody. Phopho-tyrosine mAb and HRP-lined anti-mouse IgG were used as primary and secondary antibodies respectively. Optical density was measured on a microplate reader (BMG Labtech., Germany) at […].

In another data set the test system is Akt. Briefly: Inhibition of Akt phosphorylation in NCI-H441 cells (western blot, pAkt S473). It is filed as cell-based. The conditions noted are these: Homo sapiens. Here is the method:
Inhibition of Akt Phosphorylation in MKN-45 or NCI-11441 Cells:
Akt is a serine-threonine kinase and a downstream marker regulated by c-Met kinase via the PI3K pathway. Once phosphorylated, Akt regulates several end processes including cell survival and growth. Cells were treated with 0−1000 nM of test compounds, lysed, and the proteins separated on a 10% SDS-PAGE. Following separation, proteins were transferred onto a nitrocellulose membrane and detected by chemiluminescence after incubation with pAkt S473 mAb (primary) and rabbit anti-mouse Ab (secondary). Intensity of the bands was determined using ImageJ 1.42q (NIH, USA) and normalized to Actin (loading control).
(Immunoblotting shows a protein as a band on a membrane.)

Setting [3] is: Homo sapiens, MKN-45, MKN-45 proliferation.
[4] abbreviates: Homo sapiens, MKN-45, MKN-45 proliferation, 0.1 μM.

Molecules are shown by their SMILES. Some results are limits rather than exact numbers.

Met kinase, sequence (P08581 25-1390): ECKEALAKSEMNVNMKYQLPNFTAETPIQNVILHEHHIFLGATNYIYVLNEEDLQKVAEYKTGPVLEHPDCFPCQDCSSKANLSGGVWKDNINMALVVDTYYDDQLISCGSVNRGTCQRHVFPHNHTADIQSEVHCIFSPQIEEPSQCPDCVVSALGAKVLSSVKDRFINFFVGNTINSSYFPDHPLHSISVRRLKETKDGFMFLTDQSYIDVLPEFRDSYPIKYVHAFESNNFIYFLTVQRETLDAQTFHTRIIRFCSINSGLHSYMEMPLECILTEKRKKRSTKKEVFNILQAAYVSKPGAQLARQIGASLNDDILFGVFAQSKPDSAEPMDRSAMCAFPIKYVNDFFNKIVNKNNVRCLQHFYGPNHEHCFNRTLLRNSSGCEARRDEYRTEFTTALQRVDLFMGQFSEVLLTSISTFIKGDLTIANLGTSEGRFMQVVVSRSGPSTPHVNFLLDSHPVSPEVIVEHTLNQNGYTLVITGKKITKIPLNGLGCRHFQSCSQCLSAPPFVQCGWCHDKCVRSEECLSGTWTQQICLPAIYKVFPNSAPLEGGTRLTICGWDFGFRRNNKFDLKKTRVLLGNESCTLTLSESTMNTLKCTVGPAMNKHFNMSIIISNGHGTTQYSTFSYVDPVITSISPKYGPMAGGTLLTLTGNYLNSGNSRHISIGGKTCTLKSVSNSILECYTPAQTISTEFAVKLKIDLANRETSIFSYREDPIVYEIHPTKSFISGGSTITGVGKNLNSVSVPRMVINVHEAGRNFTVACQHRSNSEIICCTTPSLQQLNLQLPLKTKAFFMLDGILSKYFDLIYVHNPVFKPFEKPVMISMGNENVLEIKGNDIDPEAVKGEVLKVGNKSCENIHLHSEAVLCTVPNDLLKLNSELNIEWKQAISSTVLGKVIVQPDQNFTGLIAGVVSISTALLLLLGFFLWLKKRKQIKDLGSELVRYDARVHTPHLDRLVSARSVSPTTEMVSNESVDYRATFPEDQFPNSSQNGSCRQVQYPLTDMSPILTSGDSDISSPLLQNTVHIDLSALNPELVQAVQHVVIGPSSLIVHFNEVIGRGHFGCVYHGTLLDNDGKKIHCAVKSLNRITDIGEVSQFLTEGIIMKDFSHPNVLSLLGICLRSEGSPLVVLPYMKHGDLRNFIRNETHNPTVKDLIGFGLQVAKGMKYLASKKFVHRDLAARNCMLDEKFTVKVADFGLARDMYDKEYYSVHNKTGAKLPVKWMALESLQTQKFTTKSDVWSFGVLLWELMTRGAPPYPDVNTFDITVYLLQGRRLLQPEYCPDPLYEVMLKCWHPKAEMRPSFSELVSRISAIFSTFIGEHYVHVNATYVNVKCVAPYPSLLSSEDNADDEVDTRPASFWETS
T1 sequence (P08581 25-1390): as above

On to `CCNC(=O)c1ccc(-c2ccc3nnn(Cc4ccc5ncccc5c4)c3n2)cc1F` [Ex43], for which the IC50 (as a rule, the concentration needed to halve the response being measured) at c-Met [1] lay within 50 to 150 nM. Moreover, in the data set with MKN-45 cells (setting [3]), the GI50 – broadly, the concentration at which growth is held to half of that of the control – was ≤ 50 nM.
With `COc1cccc(-c2ccc3nnn(Cc4ccc5ncccc5c4)c3n2)c1` [Ex 2, 6-((5-(3-Methoxyphenyl)-3H-[1,2,3]triazolo[4,5-b]pyridin-3-yl)methyl)quinoline], the melting point (as a rule, the temperature, or range, at which the solid turns liquid) is 133 to 135 °C. The concentration for 50% growth inhibition (GI50) with MKN-45 cells (setting [3]) was > 1000 nM. For the same molecule, on Met kinase, the inhibition – broadly, how much of the control response was suppressed – at 1 µM was in the range of 75 to 100% and the IC50 was in the range of 50 to 100 nM.
The corresponding values for `OCc1ccc(-c2ccc3nnn(Cc4ccc5ncccc5c4)c3n2)cc1` [Ex 6, (4-(3-(quinolin-6-ylmethyl)-3H-[1,2,3]triazolo[4,5-b]pyridin-5-yl)phenyl)methanol] are 187 to 189 °C, 150 to 500 nM, 75 to 100% and 50 to 100 nM.
With `O=C(O)c1ccc(-c2ccc3nnn(Cc4ccc5ncccc5c4)c3n2)cc1` [Ex 8, 4-(3-(quinolin-6-ylmethyl)-3H-[1,2,3]triazolo[4,5-b]pyridin-5-yl)benzoic acid], the melting point lay within 245 to 247 °C. Further, the GI50 in the data set with MKN-45 cells (setting [3]) is > 1000 nM. At Met kinase, the inhibition at 1 µM lay in the range of 75 to 100% and the IC50 was 50 to 100 nM.
As for `CNC(=O)c1ccc(-c2ccc3nnn(Cc4ccc5ncccc5c4)c3n2)cc1` [Ex 9, N-Methyl-4-(3-(quinolin-6-ylmethyl)-3H-[1,2,3]triazolo[4,5-b]pyridin-5-yl)benzamide], the melting point was in the range of 220 to 222 °C. Also, the half-maximal inhibitory concentration (IC50) against c-Met [1] was 50 to 150 nM. The molecule also registered a GI50 in the data set on MKN-45 cells (setting [3]) of 50 to 150 nM. On Met kinase, this molecule yielded an inhibition at 1 µM of 75 to 100% and an IC50 of 50 to 100 nM.
Turning to `O=C(O)c1ccc(-c2ccc3nnn(Cc4ccc5ncccc5c4)c3n2)cc1F` [Ex 13, 2-Fluoro-4-(3-(quinolin-6-ylmethyl)-3H-[1,2,3]triazolo[4,5-b]pyridin-5-yl)benzoic acid], the melting point lay in the range of 254 to 257 °C. Moreover, on Met kinase, the inhibition at 1 µM is 75 to 100% and the IC50 was in the range of 50 to 100 nM.
The molecule `CNC(=O)c1ccc(-c2ccc3nnn(Cc4ccc5ncccc5c4)c3n2)cc1F` [Ex 14, 2-Fluoro-N-methyl-4-(3-(quinolin-6-ylmethyl)-3H-[1,2,3]triazolo[4,5-b]pyridin-5-yl)benzamide] had a melting point of 212 to 214 °C. Further, on c-Met [2], the half-maximal inhibitory concentration (IC50) was 10 to 50 nM. The same molecule had a concentration for half-maximal inhibition (IC50) on c-Met [1] of 50 to 150 nM. In the data set on MKN-45 cells (setting [3]), this molecule came in with a GI50 of 50 to 150 nM. Moreover, at Met kinase, the inhibition at 1 µM is 75 to 100% and the IC50 lay within 100 to 250 nM.
Turning to `OCc1ccc(-c2ccc3nnn(Cc4ccc5ncccc5c4)c3n2)cc1F` [Ex 16, (2-Fluoro-4-(3-(quinolin-6-ylmethyl)-3H-[1,2,3]triazolo[4,5-b]pyridin-5-yl)phenyl)methanol], the melting point was in the range of 202 to 204 °C. Moreover, the concentration for half-maximal inhibition (IC50) against c-Met [1] is ≤ 50 nM. In the data set with MKN-45 cells (setting [3]), the GI50 is ≤ 50 nM. Further, at Met kinase, the inhibition at 1 µM lay within 75 to 100% and the IC50 lay in the range of 50 to 100 nM.
Consider `NC(=O)c1ccc(-c2ccc3nnn(Cc4ccc5ncccc5c4)c3n2)cc1` [Ex 21, 4-(3-(quinolin-6-ylmethyl)-3H-[1,2,3]triazolo[4,5-b]pyridin-5-yl)benzamide], for which the melting point was 229 to 231 °C. Further, in the data set with MKN-45 cells (setting [3]), the concentration for 50% growth inhibition (GI50) lay within 150 to 500 nM. At Met kinase, this molecule registered an inhibition at 1 µM of 50 to 75% and a half-inhibitory concentration (IC50) of 250 to 1000 nM.
In the case of `O=C(NC1CC1)c1ccc(-c2ccc3nnn(Cc4ccc5ncccc5c4)c3n2)cc1F` [Ex 46, N-Cyclopropyl-2-fluoro-4-(3-(quinolin-6-ylmethyl)-3H-[1,2,3]triazolo[4,5-b]pyridin-5-yl)benzamide], the IC50 against c-Met [1] lay within 50 to 150 nM. The GI50 with MKN-45 cells (setting [3]) was ≤ 50 nM.
As to `NC(=O)c1ccc(-c2ccc3nnn(Cc4cc5cccnc5cc4F)c3n2)cc1F` [Ex 137, 2-Fluoro-4-(3-((7-fluoroquinolin-6-yl)methyl)-3H-[1,2,3]triazolo[4,5-b]pyridin-5-yl)benzamide], the values for the IC50 against c-Met [2], against c-Met [1] and against Met kinase were ≤ 10 nM, ≤ 50 nM and ≤ 50 nM, respectively. For the same molecule, the GI50 in the data set on MKN-45 cells (setting [3]) was ≤ 50 nM. Besides, the inhibition at 0.1 µM in the data set with MKN-45 cells (setting [4]) was in the range of 75 to 100%. Also, the “% inhibition @ 1 uM” value in the data set with MKN-45 cells (MKN-45 proliferation, 1 μM) is “B (B = ≥50-<75%)”. This molecule came in with an inhibition at 1 µM against Met kinase of 75 to 100%.
`Cl.NC(=O)c1c(F)cc(-c2ccc3nnn(Cc4ccc5ncccc5c4)c3n2)cc1F` [Ex 139, 2,6-Difluoro-4-(3-(quinolin-6-ylmethyl)-3H-[1,2,3]triazolo[4,5-b]pyridin-5-yl)benzamide hydrochloride]: the IC50 on c-Met [2] is ≤ 10 nM. Besides, the inhibition at 1 µM with MKN-45 cells (Homo sapiens, MKN-45, MKN-45 proliferation, 1 μM) was < 25%. Further, in the data set with MKN-45 cells (MKN-45 proliferation, 0.1 μM), the “Inhibition (% Inhibition of MKN-45 proliferation)” value is on record as “B (B = ≥50-<75%)”.
`OCCn1cc(-c2ccc3nnn(Cc4ccc5ncccc5c4)c3n2)cn1` [Ex 146, 2-(4-(3-(Quinolin-6-ylmethyl)-3H-[1,2,3]triazolo[4,5-b]pyridin-5-yl)-1H-pyrazol-1-yl)ethanol]: the figures for the IC50 at c-Met [2], at c-Met [1] and in the data set on Akt were 50 to 100 nM, 50 to 150 nM and 25 to 50 nM, respectively. In the data set with MKN-45 cells (setting [3]), this molecule registered a GI50 of 50 to 150 nM.
With `CC(c1ccc2ncccc2c1)n1nnc2ccc(-c3cnn(CCO)c3)nc21` (stereo not drawn) [Ex 164, 2-(4-(3-(1-(Quinolin-6-yl)ethyl)-3H-[1,2,3]triazolo[4,5-b]pyridin-5-yl)-1H-pyrazol-1-yl)ethanol], the melting point is 188 to 191 °C. This molecule also returned a half-maximal inhibitory concentration (IC50) at c-Met [1] of 50 to 150 nM. In the data set with MKN-45 cells (setting [3]), this molecule gave a GI50 of 50 to 150 nM.
Take `C[C@@H](c1ccc2ncccc2c1)n1nnc2ccc(-c3ccc(C(N)=O)c(Cl)c3)nc21` [Ex 221, (−)-2-chloro-4-(3-(1-(quinolin-6-yl)ethyl)-3H-[1,2,3]triazolo[4,5-b]pyridin-5-yl) benzamide]: in the data set on MKN-45 cells (setting [3]), the GI50 was ≤ 50 nM. The inhibition at 0.1 µM in the data set on MKN-45 cells (setting [4]) was in the range of 50 to 75%. On Met kinase, this molecule registered an inhibition at 1 µM of 75 to 100% and a concentration for half-maximal inhibition (IC50) of 50 to 100 nM.
Regarding `C[C@H](c1ccc2ncccc2c1)n1nnc2ccc(-c3ccc(C(N)=O)c(Cl)c3)nc21` [Ex 222, (+)-2-chloro-4-(3-(1-(quinolin-6-yl)ethyl)-3H-[1,2,3]triazolo[4,5-b]pyridin-5-yl) benzamide], the inhibition at 0.1 µM in the data set with MKN-45 cells (setting [4]) was in the range of 25 to 50%. In addition, at Met kinase, the inhibition at 1 µM fell in the range of 50 to 75% and the IC50 is 250 to 1000 nM.

Source of the values: patent US10590129B2 (Incozen Therapeutics Pvt. Ltd., priority 2010, dated 2020).
